Calls of active or inactive are those of the source. No cut-off for these calls is given here. Non-standard residues stand in square brackets, D forms with d. Residues, ends and D or L forms follow the SMILES beside them. *: point of attachment. Ahx = NCCCCCC(=O)O; NHOH = ON*
Key:
Histone deacetylase = test: Inhibition of HDAC in human HeLa cell extracts using Boc-Lys(Ac)-AM as substrate by fluorescence based analysis
Huh-7 [1] = test: Induction of apoptosis in human Huh-7 cells assessed as viable cells at 5 uM incubated for 24 hrs by FITC Annexin V/propidium iodide staining based flow cytometry analysis (reference value: 92.6%); format: functional; settings: read-out: Activity
Huh-7 [2] = test: Induction of cell cycle arrest in human Huh-7 cells assessed as accumulation of cells at G2 phase at 2.5 uM incubated for 24 hrs by FACscan flow cytometer analysis (reference value: 25.74%); format: functional
Huh-7 [3] = test: Induction of cell cycle arrest in human Huh-7 cells assessed as accumulation of cells at G1 phase at 2.5 uM incubated for 24 hrs by FACscan flow cytometer analysis (reference value: 39.68%); format: functional
Huh-7 [4] = test: Induction of apoptosis in human Huh-7 cells assessed as necrotic cells at 5 uM incubated for 24 hrs by FITC Annexin V/propidium iodide staining based flow cytometry analysis (reference value: 0.401%); format: functional
Huh-7 [5] = test: Induction of cell cycle arrest in human Huh-7 cells assessed as accumulation of cells at S phase at 2.5 uM incubated for 24 hrs by FACscan flow cytometer analysis (reference value: 41.7%); format: functional
Huh-7 [6] = test: Induction of apoptosis in human Huh-7 cells assessed as late apoptotic cells at 5 uM incubated for 24 hrs by FITC Annexin V/propidium iodide staining based flow cytometry analysis (reference value: 5.19%); format: functional
Huh-7 [7] = test: Induction of apoptosis in human Huh-7 cells assessed as early apoptotic cells at 5 uM incubated for 24 hrs by FITC Annexin V/propidium iodide staining based flow cytometry analysis (reference value: 1.85%); format: functional
Huh-7 [8] = test: Induction of cell cycle arrest in human Huh-7 cells assessed as accumulation of cells at sub G1 phase at 2.5 uM incubated for 24 hrs by FACscan flow cytometer analysis relative to control; format: functional
HepG2 = test: Antiproliferative activity against human HepG2 cells incubated for 48 hrs by CCK8 method; format: functional, cell-based; settings: HepG2, 48 h
[9] = target: T1, Histone deacetylase (Homo sapiens) (UniProt Q13547+O15379+Q9UBN7+Q92769+Q9UQL6+Q8WUI4+Q9BY41+Q96DB2+P56524+Q9UKV0+Q969S8); test: Inhibition of HDAC in human Huh-7 cells assessed as increase in histone H3 acetylation at 20 to 40 uM incubated for 24 hrs by Western blot analysis; format: cell-based; settings: dose 20-40 µM
[10] = target: T1, Histone deacetylase (Homo sapiens); test: Inhibition of HDAC in human HepG2 cells assessed as increase in histone H3 acetylation at 20 to 40 uM incubated for 24 hrs by Western blot analysis; format: cell-based; settings: dose 20-40 µM
Huh-7 [11] = test: Induction of apoptosis in human Huh-7 cells assessed as late apoptotic cells at 20 uM incubated for 24 hrs by FITC Annexin V/propidium iodide staining based flow cytometry analysis (reference value: 5.19%); format: functional
Huh-7 [12] = test: Anticancer activity in human Huh-7 cells assessed as change in WNT6 gene expression by KEGG analysis; format: functional, cell-based
Huh-7 [13] = test: Induction of cell cycle arrest in human Huh-7 cells assessed as accumulation of cells at G1 phase at 20 uM incubated for 24 hrs by FACscan flow cytometer analysis (reference value: 39.68%); format: functional
Huh-7 [14] = test: Induction of apoptosis in human Huh-7 cells assessed as necrotic cells at 20 uM incubated for 24 hrs by FITC Annexin V/propidium iodide staining based flow cytometry analysis (reference value: 0.401%); format: functional
Huh-7 [15] = test: Anticancer activity in human Huh-7 cells assessed as change in BMP4 gene expression by KEGG analysis; format: functional, cell-based
Huh-7 [16] = test: Induction of cell cycle arrest in human Huh-7 cells assessed as accumulation of cells at G2 phase at 20 uM incubated for 24 hrs by FACscan flow cytometer analysis (reference value: 25.74%); format: functional
Huh-7 [17] = test: Anticancer activity in human Huh-7 cells assessed as change in BCL2L11gene expression by KEGG analysis; format: functional, cell-based
Huh-7 [18] = test: Induction of apoptosis in human Huh-7 cells assessed as viable cells at 20 uM incubated for 24 hrs by FITC Annexin V/propidium iodide staining based flow cytometry analysis (reference value: 92.6%); format: functional; settings: read-out: Activity
Huh-7 [19] = test: Induction of apoptosis in human Huh-7 cells assessed as early apoptotic cells at 20 uM incubated for 24 hrs by FITC Annexin V/propidium iodide staining based flow cytometry analysis (reference value: 1.85%); format: functional
Huh-7 [20] = test: Anticancer activity in human Huh-7 cells assessed as change in JAK2 gene expression by KEGG analysis; format: functional, cell-based
Huh-7 [21] = test: Anticancer activity in human Huh-7 cells assessed as change in BMP2 gene expression by KEGG analysis; format: functional, cell-based
Huh-7 [22] = test: Anticancer activity in human Huh-7 cells assessed as change in TP53 gene expression by KEGG analysis; format: functional, cell-based
Huh-7 [23] = test: Antiproliferative activity against human Huh-7 cells incubated for 48 hrs by CCK8 method; format: functional, cell-based; settings: Huh-7, 48 h
Huh-7 [24] = test: Induction of cell cycle arrest in human Huh-7 cells assessed as accumulation of cells at S phase at 20 uM incubated for 24 hrs by FACscan flow cytometer analysis (reference value: 41.7%); format: functional
[25] = Stability in mouse serum measured upto 24 hrs by LC/MS analysis; format: ADME, cell-free
Huh-7 [26] = test: Induction of cell cycle arrest in human Huh-7 cells assessed as accumulation of cells at sub G1 phase at 20 uM incubated for 24 hrs by FACscan flow cytometer analysis relative to control; format: functional
HT-29 = test: Antiproliferative activity against human HT-29 cells incubated for 48 hrs by CCK8 method; format: functional, cell-based; settings: HT-29, 48 h
[27] = target: T1, Histone deacetylase (Homo sapiens); test: Inhibition of HDAC in human HepG2 cells assessed as increase in histone H3 acetylation at 20 uM incubated for 24 hrs by Western blot analysis; format: cell-based
Huh-7 [28] = test: Induction of apoptosis in human Huh-7 cells assessed as late apoptotic cells at 10 uM incubated for 24 hrs by FITC Annexin V/propidium iodide staining based flow cytometry analysis (reference value: 5.19%); format: functional
[29] = target: T1, Histone deacetylase (Homo sapiens); test: Inhibition of HDAC in human Huh-7 cells assessed as increase in histone H3 acetylation at 20 uM incubated for 24 hrs by Western blot analysis; format: cell-based
Huh-7 [30] = test: Induction of cell cycle arrest in human Huh-7 cells assessed as accumulation of cells at G1 phase at 10 uM incubated for 24 hrs by FACscan flow cytometer analysis (reference value: 39.68%); format: functional
Huh-7 [31] = test: Induction of apoptosis in human Huh-7 cells assessed as necrotic cells at 10 uM incubated for 24 hrs by FITC Annexin V/propidium iodide staining based flow cytometry analysis (reference value: 0.401%); format: functional
Huh-7 [32] = test: Induction of cell cycle arrest in human Huh-7 cells assessed as accumulation of cells at G2 phase at 10 uM incubated for 24 hrs by FACscan flow cytometer analysis (reference value: 25.74%); format: functional
Huh-7 [33] = test: Induction of cell cycle arrest in human Huh-7 cells assessed as accumulation of cells at sub G1 phase at 10 uM incubated for 24 hrs by FACscan flow cytometer analysis relative to control; format: functional
Huh-7 [34] = test: Induction of cell cycle arrest in human Huh-7 cells assessed as accumulation of cells at S phase at 10 uM incubated for 24 hrs by FACscan flow cytometer analysis (reference value: 41.7%); format: functional
Huh-7 [35] = test: Induction of apoptosis in human Huh-7 cells assessed as viable cells at 10 uM incubated for 24 hrs by FITC Annexin V/propidium iodide staining based flow cytometry analysis (reference value: 92.6%); format: functional; settings: read-out: Activity
[36] = Hemolytic activity in mouse erythrocytes assessed as hemolysis at 80 uM incubated for 1.5 hrs by microplate reader assay; format: toxicity, cell-based; settings: erythrocyte
Huh-7 [37] = test: Induction of apoptosis in human Huh-7 cells assessed as early apoptotic cells at 10 uM incubated for 24 hrs by FITC Annexin V/propidium iodide staining based flow cytometry analysis (reference value: 1.85%); format: functional
[38] = Drug uptake in human Huh-7 cells assessed as cell penetration incubated for 24 hrs by flow cytometry analysis; format: ADME, cell-based; settings: huh-7, 24 h
[39] = Cytotoxicity activity against human HEK293T cells incubated for 48 hrs by CCK8 method; format: toxicity, cell-based, HEK-293T
[40] = Drug localization in human Huh-7 cells incubated for 24 hrs by DAPI staining based microscopy analysis; format: ADME, cell-based; settings: huh-7, 24 h

Structure (SMILES) | IC50 (Histone deacetylase) | IC50 (HepG2) | IC50 (Huh-7 [23]) | IC50 (HT-29) | inhibition [27] | Activity (Huh-7 [28]) | inhibition [29] | Activity (Huh-7 [30]) | Activity (Huh-7 [31]) | Activity (Huh-7 [32]) | Activity (Huh-7 [33]) | Activity (Huh-7 [34]) | viability at 10 µM (Huh-7 [35]) | Activity (Huh-7 [37]) | further results
CC(=O)N[C@@H](CCCNC(=N)N)C(=O)N[C@@H](CC(C)C)C(=O)N[C@@H](CC(C)C)C(=O)N[C@@H](CCCNC(=N)N)C(=O)N[C@@H](CC(C)C)C(=O)N[C@H]1CC[S+](C)Cc2cccc(c2)C[S+](C)CC[C@@H](C(=O)N[C@@H](CC(C)C)C(=O)N[C@@H](CC(C)C)C(=O)N[C@@H](CCCNC(=N)N)C(=O)N[C@@H](CC(C)C)C(=O)O)NC(=O)[C@H](CCCNC(=N)N)NC(=O)[C@H](CC(C)C)NC(=O)[C@H](CCCNC(=N)N)NC1=O (some centres undefined) | > 100 µM | – | – | – | – | – | – | – | – | – | – | – | – | – | –
O=C(CCCCCCC(=O)Nc1ccccc1)NO [VORINOSTAT] | – | – | – | – | – | – | – | – | – | – | – | – | – | – | viability at 5 µM (Huh-7 [1]): 47.2%; Activity (Huh-7 [2]): 18.46%; Activity (Huh-7 [3]): 46.95%; Activity (Huh-7 [4]): 9.35%; Activity (Huh-7 [5]): 25.97%; Activity (Huh-7 [6]): 37%; Activity (Huh-7 [7]): 6.4%; Activity (Huh-7 [8]): 7.16%
CC(=O)N[C@@H](CCCNC(=N)N)C(=O)N[C@@H](CC(C)C)C(=O)N[C@@H](CC(C)C)C(=O)N[C@@H](CCCNC(=N)N)C(=O)N[C@@H](CC(C)C)C(=O)N[C@H]1CC[S+](C)Cc2cccc(c2)C[S+](C)CC[C@@H](C(=O)N[C@@H](CC(C)C)C(=O)N[C@@H](CC(C)C)C(=O)N[C@@H](CCCNC(=N)N)C(=O)N[C@@H](CC(C)C)C(=O)NCCCCCC(=O)NO)NC(=O)[C@H](CCCNC(=N)N)NC(=O)[C@H](CC(C)C)NC(=O)[C@H](CCCNC(=N)N)NC1=O (some centres undefined) | 0.31 µM | 52.2 µM | 43.7 µM | 54.6 µM | – | – | – | – | – | – | – | – | – | – | inhibition [9]: Active; inhibition [10]: Active; Activity (Huh-7 [11]): 18.2%; Activity (Huh-7 [12]): Active; Activity (Huh-7 [13]): 51.86%; Activity (Huh-7 [14]): 3.89%; Activity (Huh-7 [15]): Active; Activity (Huh-7 [16]): 17.34%; Activity (Huh-7 [17]): Active; viability at 20 µM (Huh-7 [18]): 73%; Activity (Huh-7 [19]): 4.97%; Activity (Huh-7 [20]): Active; Activity (Huh-7 [21]): Active; Activity (Huh-7 [22]): Active; Activity (Huh-7 [24]): 33.25%; Stability [25]: Stable; Activity (Huh-7 [26]): 2.98%
CSCC[C@H](NC(=O)[C@H](CCCNC(=N)N)NC(=O)[C@H](CC(C)C)NC(=O)[C@H](CCCNC(=N)N)NC(=O)[C@H](CCSC)NC(=O)[C@H](CC(C)C)NC(=O)[C@H](CCCNC(=N)N)NC(=O)[C@H](CC(C)C)NC(=O)[C@H](CC(C)C)NC(=O)[C@H](CCCNC(=N)N)NC(C)=O)C(=O)N[C@@H](CC(C)C)C(=O)N[C@@H](CC(C)C)C(=O)N[C@@H](CCCNC(=N)N)C(=O)N[C@@H](CC(C)C)C(N)=O (Ac-RLLRLMRLRMLLRL-NH2) | > 100 µM | – | – | – | inactive | 21.1% | inactive | 58.07% | 5.39% | 6.43% | 6.9% | 36.8% | 69.6% | 3.93% | Activity [36]: Toxic
CSCC[C@H](NC(=O)[C@H](CCCNC(=N)N)NC(=O)[C@H](CC(C)C)NC(=O)[C@H](CCCNC(=N)N)NC(=O)[C@H](CCSC)NC(=O)[C@H](CC(C)C)NC(=O)[C@H](CCCNC(=N)N)NC(=O)[C@H](CC(C)C)NC(=O)[C@H](CC(C)C)NC(=O)[C@H](CCCNC(=N)N)NC(C)=O)C(=O)N[C@@H](CC(C)C)C(=O)N[C@@H](CC(C)C)C(=O)N[C@@H](CCCNC(=N)N)C(=O)N[C@@H](CC(C)C)C(=O)NCCCCCC(=O)NO (Ac-RLLRLMRLRMLLRL[Ahx]-{NHOH}) | 0.446 µM | 34 µM | 28.1 µM | 42.6 µM | Active | 16.5% | Active | 47.63% | 3.03% | 9.53% | 10.82% | 37.76% | 75% | 5.46% | Drug uptake [38]: Active; IC50 at 48 h [39]: 39.8 µM; Drug uptake [40]: Active

— ChEMBL document CHEMBL5252625, “Development of sulfonium tethered peptides conjugated with HDAC inhibitor to improve selective toxicity for cancer cells” (Bioorg Med Chem, 2023)
